Where two headings read alike, the source gives them in different places.
Key:
[1] = tested on: Botrytis cinerea; assay: Eggplant grey mold; format: in vivo; set-up: scale not given here; settings: inoculated 24 h later, rated after 3-4 days; for Disease Control Rating at 500 ppm: eggplant sprayed with 500 ppm; for Disease Control Rating at 20 ppm: eggplant sprayed with 20 ppm; for Disease Control Rating at 100 ppm: eggplant sprayed with 100 ppm
Procedure: Eggplant seed are planted in 2.25" square pots, six per pot, and maintained in growth chambers set at 23° C., 80% humidity, and 12 h photoperiod. When the plants are at the cotyledon stage (14-18 days afterplanting), the plants are sprayed with 1.5 mL/pot of 500, 100 or 20 ppm 2:3 acetone:water (with 0.5% Tween® 20) formulations of the test compounds.
Twenty-four hours later the plants are inoculated with Botrytis cinerea, approximately 0.5 mL/pot of a 4×10^6 spore/mL suspension. The plantes are incubated at 23° C. and 100% humidity for 3-4 days, at which time disease control ratings are made based on presence and severity of Botrytis lesions.

[2] = tested on: Rhizoctonia solani; assay: Rice sheath blight; format: in vivo; set-up: scale not given here; settings: inoculated two days later, rated after 7 days, average of five plants; for Disease Control Rating at 0.5 mg/mL: foliage and soil sprayed with 0.5 mg/mL; for Disease Control Rating at 0.02 mg/mL: foliage and soil sprayed with 0.02 mg/mL; for Disease Control Rating at 0.1 mg/mL: foliage and soil sprayed with 0.1 mg/mL
Procedure: Rice plants, 11 to 15 days old, are grown in 7.65 cm^2 pots. Each plant in the treatment groups is treated by spraying both the foliage and the soil surface, each with 2 mL of a water/acetone/Tween®20 formulation containing 0.5, 0.1, or 0.02 mg/mL of Compound A. The pots are placed in flood trays which are filled with water to just below the soil line. Two days later, approximately two grams of Rhizoctonia solani inoculum, cultured on rice grain for four to eight weeks, is applied to the base of the rice plants in each pot. After 7 days in a 25° C. high humidity growth chamber, each plant is evaluated for the level of disease contro as compared to untreated controls by the following scale and the average of five plants per treatment level is calculated.

[3] = target: T1, succinate dehydrogenase (Botrytis cinerea, UniProt A0A384J5E4+A0A384J8V8+A0A384JHJ5); assay: Enzyme inhibition: succinate dehydrogenase activity in Botrytis cinerea mitochondria (DCPIP reduction); format: biochemical
T1 construct: succinate-DCPIP reductase assay with KCN
Procedure: Mitochondria were isolated by a method adapted from G.A. White [Biochem. Biophys. Res. Commun. 44: 1212, 1971]. Twenty to thirty grams of Botrytis cinerea isolate Nick were resuspended in 250 mL 0.25M sucrose, 5mM Na4 EDTA, pH 7.0 (+) 0.15% (w/v) bovine serum albumin (BSA) and placed in a Bead Beater chamber (Biospec Products, Bartlesville, Ok.). Zirconium oxide beads (0.5mm) were added to finish filling the chamber. Four 30 second beats separated by 2 minute temperature equilibration periods in the cold were used to break the mycelia. A crude mitochondrial preparation was harvested from the homogenate by differential centrifugation at 4° C. and resuspended in BSA-free sucrose/EDTA media and used for SDH assays.
The succinate dehydrogenase activity was measured at 600 nm in 50 mM potassium phosphate, pH 7.2, 1 mM KCN, 45 μM 2,6-dichlorophenolindophenol (DCPIP) and 17 mM disodium succinate (final volume, 1 mL) with a Perkin-Elmer Lambda 7 ultraviolet-visible spectrophotometer. The test compounds were added as acetone solutions (final concentration of acetone, 1% (v/v)). The mitochondrial preparatons were used to initiate the reaction. All rates were corrected for endogenous activities minus succinate. Semilog plots of percentage inhibition versus test compound concentration were used to determine inhibition expressed as I50 (μM) which is the concentration required to inhibit the rate of DCPIP reduction by 50%. The commercial fungicide carboxin was used as standard throughout.

[4] = tested on: Botrytis cinerea; assay: Vine grey mold (grape berries); format: in vivo; settings: average of six berries, 7-10 days; for pest or weed control at 50 ppm: grape berries treated with 50 ppm, read-out: % DISEASE CONTROL 50 ppm; for pest or weed control at 200 ppm: grape berries treated with 200 ppm, read-out: % DISEASE CONTROL 200 ppm
Procedure: Grape berries, which have been washed and surfaced sterilized in 70% ethanol for one minute, are, except for the negative controls, treated with 0.2 mL of a 2:3 acetone/water formulation (containing 0.05% Tween® 20) of 200 or 50 ppm of the test compounds and placed one per well in 12-well plates. Six berries per treatment level are used. Twenty-four hours later each berry is inoculated with Botrytis cinerea conidia, 0.2 mL of 10^6 spores/mL suspension. The plates are incubated at 20° C. with a 12 hours photoperiod for 7-10 days and the percent surface area infected with the disease is determined for each replicate using the values of 0, 1, 2, 5, 7, 10, 15, 20, 25, 30, 35, 40, 45, 50, 55, 60, 65, 70, 75, 80, 85, 90, 95, and 100%. Treatment means are calculated and percent disease control is determined by the formula [(control mean - treatment mean)/control means]×100.
Some of the compounds have been tested more than once and the results shown are the average of the number of tests reported.

[5] = concentration required to inhibit the rate of DCPIP reduction by 50%; Botrytis cinerea isolate Nick mitochondria; read-out: I50 (μM conc.)

T1 sequence (A0A384J5E4 1-300): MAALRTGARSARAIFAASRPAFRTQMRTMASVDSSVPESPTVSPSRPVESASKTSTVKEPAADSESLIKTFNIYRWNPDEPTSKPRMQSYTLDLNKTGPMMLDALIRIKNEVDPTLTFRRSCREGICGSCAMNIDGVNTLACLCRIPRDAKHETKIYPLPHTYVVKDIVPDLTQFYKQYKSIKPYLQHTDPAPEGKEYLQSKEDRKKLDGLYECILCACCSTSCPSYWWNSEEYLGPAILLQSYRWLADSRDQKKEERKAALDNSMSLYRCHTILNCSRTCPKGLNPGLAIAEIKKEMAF
T1 sequence (A0A384J8V8 1-189): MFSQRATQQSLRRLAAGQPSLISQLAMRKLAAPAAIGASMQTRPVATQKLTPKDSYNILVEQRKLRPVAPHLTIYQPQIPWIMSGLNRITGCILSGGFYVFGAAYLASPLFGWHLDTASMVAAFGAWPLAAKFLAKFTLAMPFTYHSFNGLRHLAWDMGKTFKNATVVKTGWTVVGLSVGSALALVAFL
T1 sequence (A0A384JHJ5 1-192): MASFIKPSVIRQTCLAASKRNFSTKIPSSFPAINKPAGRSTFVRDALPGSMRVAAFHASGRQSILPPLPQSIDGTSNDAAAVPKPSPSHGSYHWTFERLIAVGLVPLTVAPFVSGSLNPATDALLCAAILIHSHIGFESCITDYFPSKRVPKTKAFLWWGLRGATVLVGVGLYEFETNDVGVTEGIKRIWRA
T1 sequence (A0A384K456 1-647 partner): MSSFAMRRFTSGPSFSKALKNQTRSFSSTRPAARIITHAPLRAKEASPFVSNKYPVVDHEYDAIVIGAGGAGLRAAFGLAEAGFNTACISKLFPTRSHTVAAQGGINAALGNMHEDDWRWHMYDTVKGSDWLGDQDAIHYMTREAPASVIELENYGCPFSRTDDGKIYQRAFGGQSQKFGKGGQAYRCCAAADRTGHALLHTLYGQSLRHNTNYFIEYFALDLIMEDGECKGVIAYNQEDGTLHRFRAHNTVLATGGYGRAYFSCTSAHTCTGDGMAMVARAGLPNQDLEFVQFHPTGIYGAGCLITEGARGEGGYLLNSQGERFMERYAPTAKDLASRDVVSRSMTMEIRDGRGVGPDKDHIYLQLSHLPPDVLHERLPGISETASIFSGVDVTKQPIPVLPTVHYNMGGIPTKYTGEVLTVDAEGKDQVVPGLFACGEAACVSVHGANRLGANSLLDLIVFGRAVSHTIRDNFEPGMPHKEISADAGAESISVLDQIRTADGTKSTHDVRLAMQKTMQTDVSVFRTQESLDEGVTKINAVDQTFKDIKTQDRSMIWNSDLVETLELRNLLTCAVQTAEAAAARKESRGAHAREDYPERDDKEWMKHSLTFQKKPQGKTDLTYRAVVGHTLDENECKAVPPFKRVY

Row | Structure (SMILES) | Disease Control Rating at 500 ppm [1] | Disease Control Rating at 0.5 mg/mL [2] | IC50 [3, 5] | pest or weed control at 50 ppm [4] | pest or weed control at 200 ppm [4] | Disease Control Rating at 20 ppm [1] | Disease Control Rating at 100 ppm [1] | Disease Control Rating at 0.02 mg/mL [2] | Disease Control Rating at 0.1 mg/mL [2] | IC50 ([3]; read-out: I50 (μM conc.); concentration required to inhibit the rate of DCPIP reduction by 50%; Botrytis cinerea isolate Nick mitochondria)
1 | C[C@@H]1CCC[C@@H](C)C1Oc1ccccc1NC(=O)c1cn(C)nc1C(F)(F)F (relative stereo) [Example 75, 1H-pyrazole-4-carboxamide, 1-methyl-N-[2-[(2,6-dimethylcyclohexyl)oxy]phenyl]-3-(trifluoromethyl)-, (1alpha,2alpha,6beta)-] | 0 | 0 | 0.013 µM | 6% | 0% | – | – | – | – | –
2 | C=CCn1cc(C(=O)Nc2ccccc2C2CCCCC2)c(C(F)F)n1 [Example 14, 1H-pyrazole-4-carboxamide, N-(2-cyclohexylphenyl)-3-(difluoromethyl)-1-(2-propenyl)-] | 0 | 1 | 0.29 µM | 0% | 0% | – | – | – | – | –
3 | Cc1cccc(NC(=O)c2cn(C)nc2C(F)F)c1C1CCCCC1 [Example 20, 1H-pyrazole-4-carboxamide, N-(2-cyclohexyl-3-methylphenyl)-3-(difluoromethyl)-1-methyl-] | 3 | 3 | 0.014 µM | 78% | 81% | 1 | 2 | 2 | 3 | –
4 | Cn1cc(C(=O)Nc2ccccc2C2=CCOCC2)c(C(F)(F)F)n1 [Example 108, 1H-pyrazole-4-carboxamide, N-[2-(5,6-dihydro-2H-pyran-4-yl)phenyl]-1-methyl-3-(trifluoromethyl)-] | 0 | 0 | 1.6 µM | 12% | 0% | – | – | – | – | –
5 | CC(=C1CCCC1)c1ccccc1NC(=O)c1cn(C)nc1C(F)(F)F [Example 33, 1H-pyrazole-4-carboxamide, N-[2-(1-cyclopentylideneethyl)phenyl]-1-methyl-3-(trifluoromethyl)-] | 2 | 3 | 0.0014 µM | 34% | 41% | 1 | 1 | 1 | 1 | –
6 | Cn1cc(C(=O)Nc2ccccc2O[C@@H]2C[C@H]3CC[C@@H]2C3)c(C(F)F)n1 (relative stereo) [Example 80, 1H-pyrazole-4-carboxamide, N-[2-(bicyclo[2.2.1]hept-2-yloxy)-phenyl]-3-(difluoromethyl)-1-methyl-, exo-] | 0 | 3 | 0.083 µM | 0% | 0% | – | – | 2 | 3 | –
7 | Cn1cc(C(=O)Nc2ccccc2OC2CCCCC2)c(C(F)(F)F)n1 [Example 23, 1H-pyrazole-4-carboxamide, N-[2-(cyclohexyloxy)phenyl]-1-methyl-3-(trifluoromethyl)-] | 0 | 3 | 0.01 µM | 20% | 66% | – | – | 1 | 2 | –
8 | Cn1cc(C(=O)Nc2ccccc2C2CCC(C(C)(C)C)CC2)c(C(F)F)n1 (stereo not shown) [Example 134] | 2 | 3 | 0.0047 µM | 66% | 61% | 1 | 1 | 3 | 3 | –
9 | Cn1cc(C(=O)Nc2ccccc2C2=CCCCCC2)c(C(F)F)n1 [Example 111, 1H-pyrazole-4-carboxamide, N-[2-(1-cyclohepten-1-yl)phenyl]-3-(difluoromethyl)-1-methyl-] | 1 | 3 | 0.0038 µM | 99% | 100% | 1 | 1 | 3 | 3 | –
10 | Cn1cc(C(=O)Nc2ccccc2[C@@H]2C[C@H]3CC[C@@H]2C3)c(C(F)(F)F)n1 (relative stereo) [Example 27, 1H-pyrazole-4-carboxamide, N-(2-bicyclo[2.2.1]hept-2-ylphenyl)-1-methyl-3-(trifluoromethyl)-, exo-] | 2 | 0 | 0.0048 µM | 80% | 74% | 0 | 1 | – | – | –
11 | Cc1c(C(=S)Nc2ccccc2[C@@H]2C[C@H]3CC[C@@H]2C3)c(Cl)nn1C (relative stereo) [Example 103, 1H-pyrazole-4-carbothioamide, N-(2-bicyclo[2.2.1]hept-2-ylphenyl)-3-chloro-1,5-dimethyl-, exo-] | 0 | 0 | 0.52 µM | 5% | 18% | – | – | – | – | –
12 | Cn1cc(C(=O)Nc2ccccc2C2=CCCCCCC2)c(C(F)F)n1 [Example 119] | 2 | 2 | – | 73% | 84% | 0 | 1 | – | – | 0.0035 µM
13 | Cn1cc(C(=O)Nc2ccccc2C2=CCCCC2C(C)(C)C)c(C(F)(F)F)n1 (stereo not shown) [Example 141, 1H-pyrazole-4-carboxamide, N-[2-[6-(1,1-dimethylethyl)-1-cyclohexen-1-yl]phenyl]-1-methyl-3-(trifluoromethyl)-] | 1 | 3 | 0.049 µM | 12% | 12% | 0 | 0 | – | – | –
14 | Cn1cc(C(=O)Nc2cc(Br)cc(Br)c2C2CCCCC2)c(C(F)(F)F)n1 [Example 136, 1H-pyrazole-4-carboxamide, N-(3,5-dibromo-2-cyclohexylphenyl)-1-methyl-3-(trifluoromethyl)-] | 1 | 0 | – | 7% | 0% | 0 | 0 | – | – | –

Source: patent US5223526A, “Pyrazole carboxanilide fungicides and use” (Monsanto Company, priority 1992, dated 1993)
